Experimental findings from ChEMBL document CHEMBL3045267, “Aromatic-ring-functionalised benzoxazinones in the system Oryza sativa-Echinochloa crus-galli as biorational herbicide models” (Pest Manag Sci, 2009) are described below.

The test system of series [1] is Echinochloa crus-galli. The series is described as follows: Herbicidal activity against Echinochloa crus-galli (barnyard grass) assessed as inhibition of root length after 5 days at 25 degC. Format: functional, organism-based. The following applies: 120 h.
Another series has as its system Oryza sativa. Put plainly: Phytotoxicity against Oryza sativa (rice) assessed as inhibition of root length after 7 days at 25 degC. In kind it is organism-based. The following applies: 168 h.
In series [2] the test system is Echinochloa crus-galli. The series is described as follows: Herbicidal activity against Echinochloa crus-galli (barnyard grass) assessed as inhibition of root length at 64 uM after 5 days at 25 degC. To be noted: 120 h. In kind it is functional.
Series [3] can be described thus: Phytotoxicity against Oryza sativa (rice) assessed as inhibition of root length at 64 uM after 7 days at 25 degC. In kind it is organism-based. The following applies: whole organism (rice plants, root growth).

The term IC50 denotes the concentration needed to halve the response being measured. The inhibition is how much of the control response was suppressed.

Regarding `COc1ccc2c(c1)N(O)C(=O)CO2` [6-MeO-D-DIBOA], the IC50 in the series with Echinochloa crus-galli [1] was 159 µM.
For `O=C1COc2cc(F)ccc2N1O` [7-F-D-DIBOA], the half-inhibitory concentration (IC50) in the series with Oryza sativa was determined as 171 µM; with Echinochloa crus-galli [1], 130 µM.
For `COC(=O)c1ccc2c(c1)OCC(=O)N2O` [7-MeOCO-D-DIBOA], in the series with Echinochloa crus-galli [1], the IC50 stood at 1640 µM.
As for `O=C1COc2ccc(Cl)cc2N1O` [6-Cl-D-DIBOA], the IC50 in the series with Oryza sativa came to 3 µM; in the series with Echinochloa crus-galli [1], 8 µM.
With `O=C1COc2c(Cl)cccc2N1O` [8-Cl-D-DIBOA], the inhibition at 64 µM in the series on Echinochloa crus-galli [2] turned out to be 60%. Further, the inhibition at 168 h, 64 µM in series [3] came out at 10%. For the same compound, the IC50 in the series on Oryza sativa came out at 501 µM; in the series with Echinochloa crus-galli [1] it was 44 µM.
Regarding `O=C1COc2c(Cl)cc(Cl)cc2N1O` [6,8-diCl-D-DIBOA], the IC50 in the series with Oryza sativa amounted to 3320 µM; with Echinochloa crus-galli [1] it was 281 µM.
In the case of `O=C1COc2c(F)cccc2N1O` [8-F-D-DIBOA], the IC50 is 185 µM in the series with Oryza sativa and 69 µM in the series on Echinochloa crus-galli [1].
For `COC(=O)c1ccc2c(c1)N(O)C(=O)CO2` [6-MeOCO-D-DIBOA], in the series with Echinochloa crus-galli [1], the IC50 turned out to be 229 µM.
With `O=C1COc2ccc(F)cc2N1O` [6-F-D-DIBOA], the IC50 is 9 µM in the series with Oryza sativa and 2.8 µM with Echinochloa crus-galli [1].
The corresponding values for `O=C1COc2c(ccc(F)c2F)N1O` [7,8-diF-D-DIBOA] are 159 µM and 52 µM.
Regarding `COc1ccc2c(c1OC)OCC(=O)N2O` [7,8-diMeO-D-DIBOA], the IC50 with Echinochloa crus-galli [1] was determined as 690 µM.
As to `O=C1COc2ccccc2N1O`, the IC50 with Echinochloa crus-galli [1] amounted to 360 µM.
For the compound `COc1ccc2c(c1)OCC(=O)N2O`, the IC50 in the series with Echinochloa crus-galli [1] was found to be 819 µM.
For `O=C1COc2ccc(C(F)(F)F)cc2N1O` [6-CF3-D-DIBOA], the figures for the IC50 in the series with Oryza sativa and in the series on Echinochloa crus-galli [1] were 264 µM and 160 µM, respectively.
Take `CCC(=O)Nc1ccc(Cl)c(Cl)c1` [PROPANIL]: the IC50 with Oryza sativa was found to be 213 µM.
